In ChEMBL document CHEMBL5653610, “The novel phosphodiesterase 10A inhibitor THPP-1 has antipsychotic-like effects in rat and improves cognition in rat and rhesus monkey” (Neuropharmacology, 2013):
Calls of active or inactive are those of the source. The rule behind the calls is not given here.

How the values were obtained:
[1] = Drug level in Wistar Hannover rat CSF at 0.1 mg/kg, po after 2 hrs by UPLC-MS analysis; type: ADME, organism-based, Cerebrospinal fluid; details: read-out: Drug uptake
[2] = Drug level in Wistar Hannover rat CSF at 3 mg/kg, po after 2 hrs by UPLC-MS analysis; type: ADME, organism-based, Cerebrospinal fluid; details: read-out: Drug uptake
[3] = Unbound drug level in Wistar Hannover rat plasma at 1 mg/kg, po after 2 hrs by UPLC-MS analysis; type: ADME, organism-based; details: in vivo
Rattus norvegicus [4] = test: Antipsychotic activity in Wistar Hannover rat assessed as reduction in MK-801-induced psychomotor activity at 3 mg/kg, po for 14 days followed by drug dosing at 3 mg/kg, po 120 mins before MK-801 challenge; type: functional, organism-based; details: time 20280.0 min
[5] = Protein binding in orally dosed rhesus monkey plasma after 4 hrs by UPLC-MS analysis; type: ADME, organism-based, Macaca mulatta; details: route po, read-out: PPB (converted)
[6] = Bioavailability in orally dosed rat after 2 hrs by UPLC-MS analysis; type: ADME, organism-based; details: in vivo, route po
Rattus norvegicus [7] = test: Reduction in locomotor activity in Wistar Hannover rat at 1 mg/kg, po dosed 90 mins before identical objects by novel object recognition test; type: functional, organism-based
[8] = Drug level in Wistar Hannover rat CSF at 10 mg/kg, po after 2 hrs by UPLC-MS analysis; type: ADME, organism-based, Cerebrospinal fluid; details: read-out: Drug uptake
[9] = Drug level in Wistar Hannover rat CSF at 30 mg/kg, po after 2 hrs by UPLC-MS analysis; type: ADME, organism-based, Cerebrospinal fluid; details: read-out: Drug uptake
Rhesus monkey = test: Antipsychotic activity in rhesus monkey assessed as attenuation of ketamine impaired performance on difficult trials at 3 mg/kg, po dosed for 4 days prior to testing and on day 5 drug was administered orally 2 h prior to testing by object retrieval detour task; type: functional, organism-based; details: Macaca mulatta, time 4.0 day
[10] = Total drug level in plasma of Wistar Hannover rat not-engaged in object retrieval detour task at 10 mg/kg, po dosed for 4 days prior to testing and on day 5 drug was administered orally 2 h prior to testing and measured after 4 hrs by UPLC-MS analysis; type: ADME, organism-based; details: time 5 day
[11] = Unbound drug level in Wistar Hannover rat plasma at 30 mg/kg, po after 2 hrs by UPLC-MS analysis; type: ADME, organism-based; details: in vivo
Rattus norvegicus [12] = test: Antipsychotic activity in Wistar Hannover rat assessed as increase in recognition at 0.3 mg/kg, po dosed 90 mins before identical objects by novel object recognition test; type: functional, organism-based
[13] = Unbound drug level in Wistar Hannover rat plasma at 3 mg/kg, po after 2 hrs by UPLC-MS analysis; type: ADME, organism-based; details: in vivo
Rattus norvegicus [14] = test: In-vivo increase of pGluR1/GluR1 ratios in membrane fraction of Wistar Hannover rat striatal tissues at 3 to 30 mg/kg, po after 2 hrs by Western blot analysis; type: functional, organism-based; details: Striatum, dose 3-30 mg/kg
Rattus norvegicus [15] = test: In-vivo increase of ERK in membrane fraction of Wistar Hannover rat striatal tissues at 30 mg/kg, po after 2 hrs by Western blot analysis relative to control; type: functional, organism-based; details: Striatum
[16] = Half life in orally dosed rat after 2 hrs by UPLC-MS analysis; type: ADME, organism-based; details: in vivo, route po
[17] = Total drug level in plasma of […] engaged in object retrieval detour task at 10 mg/kg, po dosed for 4 days prior to testing and on day 5 drug was administered orally 2 h prior to testing and measured after 4 hrs by UPLC-MS analysis; type: ADME, organism-based; details: time 5 day
[18] = Unbound drug level in plasma of Wistar Hannover rat not-engaged in object retrieval detour task at 10 mg/kg, po dosed for 4 days prior to testing and on day 5 drug was administered orally 2 h prior to testing and measured after 4 hrs by UPLC-MS analysis; type: ADME, organism-based; details: in vivo, 120 h, time 5 day
[19] = Total drug level in Wistar Hannover rat plasma at 0.1 mg/kg, po after 2 hrs by UPLC-MS analysis; type: ADME, organism-based
[20] = Bioavailability in orally dosed dog after 2 hrs by UPLC-MS analysis; type: ADME, organism-based, Canis lupus familiaris; details: in vivo, route po
[21] = Total drug level in Wistar Hannover rat plasma at 30 mg/kg, po after 2 hrs by UPLC-MS analysis; type: ADME, organism-based
[22] = Clearance in orally dosed rhesus monkey after 4 hrs by UPLC-MS analysis; type: ADME, organism-based, Macaca mulatta; details: in vivo, route po
Rattus norvegicus [23] = test: In-vivo increase of GluR1 S845 phosphorylation in membrane fraction of Wistar Hannover rat striatal tissues at 3 to 30 mg/kg, po after 2 hrs by Western blot analysis; type: functional, organism-based; details: Striatum, dose 3-30 mg/kg
[24] = Unbound drug level in Wistar Hannover rat plasma at 0.1 mg/kg, po after 2 hrs by UPLC-MS analysis; type: ADME, organism-based; details: in vivo
[25] = Drug level in Wistar Hannover rat CSF at 0.3 mg/kg, po after 2 hrs by UPLC-MS analysis; type: ADME, organism-based, Cerebrospinal fluid; details: read-out: Drug uptake
[26] = Unbound drug level in Wistar Hannover rat plasma at 0.3 mg/kg, po after 2 hrs by UPLC-MS analysis; type: ADME, organism-based; details: in vivo
Rattus norvegicus [27] = test: Antipsychotic activity in Wistar Hannover rat assessed as reduction in conditioned avoidance responding at 1 to 3 mg/kg, po dosed 120 mins before testing; type: functional, organism-based; details: dose 1-3 mg/kg

SMILES: COCCOc1nc(-c2ccc(Cl)nc2)nc2c1CN(C(=O)c1ncn3ccccc13)CC2 [THPP-1]
- concentration at 2 h [1]: 0.001 µM
- concentration at 2 h [2]: 0.0083 µM
- Cp(f) [3]: 0.0049 µM
- Activity (Rattus norvegicus [4]): Active
- fraction unbound at 4 h [5]: 0.012
- bioavailability [6]: 47%
- Activity (Rattus norvegicus [7]): Active
- concentration at 2 h [8]: 0.0161 µM
- concentration at 2 h [9]: 0.0201 µM
- Activity (Rhesus monkey): Active
- concentration at 120 h [10]: 2.82 µM
- Cp(f) [11]: 0.0325 µM
- Activity (Rattus norvegicus [12]): Active
- Cp(f) [13]: 0.0134 µM
- Activity (Rattus norvegicus [14]): Active
- Activity (Rattus norvegicus [15]): Dose-Dependent Effect
- half-life [16]: 1.4 h
- concentration at 120 h [17]: 1.6 µM
- Cp(f) [18]: 0.034 µM
- concentration at 2 h [19]: 0.032 µM
- bioavailability [20]: 79%
- concentration at 2 h [21]: 1.8 µM
- CL/F [22]: 0.462 L/h/kg
- Activity (Rattus norvegicus [23]): Dose-Dependent Effect
- Cp(f) [24]: 0.0006 µM
- concentration at 2 h [25]: 0.003 µM
- Cp(f) [26]: 0.0021 µM
- Activity (Rattus norvegicus [27]): Dose-Dependent Effect
